Key:
Assay in all cases: radiometric filter-binding kinase assay
MAP2K2 (human) = MAP2K2 (human) (UniProt P36507); settings: compound 10.0 µM
MAPK9 (human) = MAPK9 (human) (UniProt P45984)
IKBKB (human) = IKBKB (human) (UniProt O14920)
PIM3 (human) = PIM3 (human) (UniProt Q86V86)
EPHB1 (human) = EPHB1 (human) (UniProt P54762); settings: compound 10.0 µM
SRPK1 (human) = SRPK1 (human) (UniProt Q96SB4)
YES1 (human) = YES1 (human) (UniProt P07947)
[1] = tested on: PAK2 (human), Q13177 [T402E]
MAPKAPK2 (human) = MAPKAPK2 (human) (UniProt P49137)
CDK2 CCNA2 (human) = CDK2 CCNA2 (human) (UniProt P20248+P24941)
TBK1 (human) = TBK1 (human) (UniProt Q9UHD2)
MARK4 (human) = MARK4 (human) (UniProt Q96L34)
MAP3K9 (human) = MAP3K9 (human) (UniProt P80192)
BTK (human) = BTK (human) (UniProt Q06187)
PIM2 (human) = PIM2 (human) (UniProt Q9P1W9)
[2] = tested on: RPS6KB1 (human), P23443 [T412E]
PKN2 (human) = PKN2 (human) (UniProt Q16513)
TTK (human) = TTK (human) (UniProt P33981)
MAP2K1 (human) = MAP2K1 (human) (UniProt Q02750)
PAK6 (human) = PAK6 (human) (UniProt Q9NQU5)
MARK3 (human) = MARK3 (human) (UniProt P27448)
CSNK2A1 (human) = CSNK2A1 (human) (UniProt P68400)
GCK (human) = GCK (human) (UniProt Q12851)
EPHA4 (human) = EPHA4 (human) (UniProt P54764)
STK3 (human) = STK3 (human) (UniProt Q13188)
CHEK1 (human) = CHEK1 (human) (UniProt O14757)
MYLK (human) = MYLK (human) (UniProt Q15746)
MKNK2 (human) = MKNK2 (human) (UniProt Q9HBH9)
NEK6 (human) = NEK6 (human) (UniProt Q9HC98)
MAP3K5 (human) = MAP3K5 (human) (UniProt Q99683); settings: compound 10.0 µM
PIM1 (human) = PIM1 (human) (UniProt P11309)
INSRR (human) = INSRR (human) (UniProt P14616)
EEF2K (human) = EEF2K (human) (UniProt O00418)
EPHB4 (human) = EPHB4 (human) (UniProt P54760)
DAPK1 (human) = DAPK1 (human) (UniProt P53355)
RPS6KA5 KD1 KD2 (human) = RPS6KA5 KD1 KD2 (human) (UniProt O75582)
RPS6KA5 KD1 KD2 (human), sequence (O75582 whole entry, looked up): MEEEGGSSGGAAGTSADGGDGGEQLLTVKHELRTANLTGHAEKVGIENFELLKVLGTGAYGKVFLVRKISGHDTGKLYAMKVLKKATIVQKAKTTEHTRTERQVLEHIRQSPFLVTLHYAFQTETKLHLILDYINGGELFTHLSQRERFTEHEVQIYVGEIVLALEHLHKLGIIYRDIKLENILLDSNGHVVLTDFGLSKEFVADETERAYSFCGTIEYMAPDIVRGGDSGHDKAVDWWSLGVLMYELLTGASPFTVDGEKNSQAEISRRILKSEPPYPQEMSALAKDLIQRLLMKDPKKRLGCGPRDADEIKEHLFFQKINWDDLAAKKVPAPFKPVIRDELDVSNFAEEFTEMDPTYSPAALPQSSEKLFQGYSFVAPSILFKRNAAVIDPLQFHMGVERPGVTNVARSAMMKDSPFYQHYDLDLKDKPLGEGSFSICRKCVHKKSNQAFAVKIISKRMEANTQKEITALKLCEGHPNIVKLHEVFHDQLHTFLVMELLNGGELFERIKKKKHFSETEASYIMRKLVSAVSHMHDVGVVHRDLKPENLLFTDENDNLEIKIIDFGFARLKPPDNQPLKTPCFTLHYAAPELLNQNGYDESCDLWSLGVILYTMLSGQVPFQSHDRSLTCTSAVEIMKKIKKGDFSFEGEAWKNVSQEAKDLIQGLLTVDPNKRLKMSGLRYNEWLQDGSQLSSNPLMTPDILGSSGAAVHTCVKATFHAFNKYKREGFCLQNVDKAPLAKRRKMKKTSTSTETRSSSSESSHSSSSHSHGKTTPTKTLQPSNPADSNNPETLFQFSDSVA

MYLK (human), sequence (Q15746 whole entry, looked up): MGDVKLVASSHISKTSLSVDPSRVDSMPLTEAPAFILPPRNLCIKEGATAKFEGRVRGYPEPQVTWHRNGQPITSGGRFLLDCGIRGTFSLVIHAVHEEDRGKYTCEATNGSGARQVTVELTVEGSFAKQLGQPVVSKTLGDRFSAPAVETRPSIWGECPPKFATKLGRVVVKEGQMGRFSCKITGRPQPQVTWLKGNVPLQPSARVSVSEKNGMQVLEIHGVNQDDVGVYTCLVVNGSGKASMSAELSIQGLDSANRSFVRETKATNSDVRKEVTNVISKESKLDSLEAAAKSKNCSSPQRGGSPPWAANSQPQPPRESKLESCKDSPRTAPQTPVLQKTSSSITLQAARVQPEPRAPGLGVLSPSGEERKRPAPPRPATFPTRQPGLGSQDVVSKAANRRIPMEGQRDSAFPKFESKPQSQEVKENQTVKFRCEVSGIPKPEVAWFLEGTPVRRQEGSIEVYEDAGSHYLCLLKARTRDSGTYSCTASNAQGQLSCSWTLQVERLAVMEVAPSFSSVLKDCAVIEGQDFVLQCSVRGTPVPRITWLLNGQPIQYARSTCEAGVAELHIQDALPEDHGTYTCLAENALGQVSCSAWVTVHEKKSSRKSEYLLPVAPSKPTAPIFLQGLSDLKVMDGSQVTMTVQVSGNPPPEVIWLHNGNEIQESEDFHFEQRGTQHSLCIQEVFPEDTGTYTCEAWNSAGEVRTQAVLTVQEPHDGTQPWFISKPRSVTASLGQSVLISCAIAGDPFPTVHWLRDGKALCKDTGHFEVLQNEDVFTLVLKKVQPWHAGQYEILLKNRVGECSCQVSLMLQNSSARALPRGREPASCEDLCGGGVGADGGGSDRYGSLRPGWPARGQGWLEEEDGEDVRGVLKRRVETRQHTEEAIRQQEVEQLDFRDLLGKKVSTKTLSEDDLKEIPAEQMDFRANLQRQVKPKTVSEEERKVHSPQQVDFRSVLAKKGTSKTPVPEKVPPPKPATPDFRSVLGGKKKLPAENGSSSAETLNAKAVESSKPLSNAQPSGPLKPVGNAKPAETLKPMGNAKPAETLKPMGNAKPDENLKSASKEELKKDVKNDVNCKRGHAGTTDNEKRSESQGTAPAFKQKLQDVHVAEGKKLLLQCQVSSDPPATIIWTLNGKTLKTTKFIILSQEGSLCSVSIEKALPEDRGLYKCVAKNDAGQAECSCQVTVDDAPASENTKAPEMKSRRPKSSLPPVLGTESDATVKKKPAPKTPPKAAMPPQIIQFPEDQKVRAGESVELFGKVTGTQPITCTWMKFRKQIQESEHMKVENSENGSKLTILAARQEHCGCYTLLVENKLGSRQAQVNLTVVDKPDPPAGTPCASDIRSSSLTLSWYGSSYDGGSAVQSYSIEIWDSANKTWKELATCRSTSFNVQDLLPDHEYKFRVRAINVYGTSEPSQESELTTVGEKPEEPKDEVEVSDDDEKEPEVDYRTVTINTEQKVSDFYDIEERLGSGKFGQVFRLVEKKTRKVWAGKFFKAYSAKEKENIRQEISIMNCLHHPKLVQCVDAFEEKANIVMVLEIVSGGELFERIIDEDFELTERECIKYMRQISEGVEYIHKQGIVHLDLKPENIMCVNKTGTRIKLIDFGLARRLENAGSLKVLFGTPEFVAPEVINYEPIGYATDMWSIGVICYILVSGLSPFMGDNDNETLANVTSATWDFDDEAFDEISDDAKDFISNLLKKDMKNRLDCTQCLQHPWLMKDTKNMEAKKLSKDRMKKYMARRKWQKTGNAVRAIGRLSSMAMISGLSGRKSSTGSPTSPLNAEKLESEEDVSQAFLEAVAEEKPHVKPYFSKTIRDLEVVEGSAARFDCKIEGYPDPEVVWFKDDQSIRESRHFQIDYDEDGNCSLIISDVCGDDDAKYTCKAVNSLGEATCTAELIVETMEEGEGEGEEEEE
PIM1 (human), sequence (P11309 whole entry, looked up): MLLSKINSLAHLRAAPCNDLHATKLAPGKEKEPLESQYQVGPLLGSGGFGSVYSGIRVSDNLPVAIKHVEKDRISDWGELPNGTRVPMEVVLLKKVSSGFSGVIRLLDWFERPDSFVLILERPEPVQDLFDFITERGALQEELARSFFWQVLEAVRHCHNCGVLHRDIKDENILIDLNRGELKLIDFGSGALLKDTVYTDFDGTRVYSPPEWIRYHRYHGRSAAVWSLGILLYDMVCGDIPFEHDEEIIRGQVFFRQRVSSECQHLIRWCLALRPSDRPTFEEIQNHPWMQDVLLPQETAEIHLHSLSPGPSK
EEF2K (human), sequence (O00418 whole entry, looked up): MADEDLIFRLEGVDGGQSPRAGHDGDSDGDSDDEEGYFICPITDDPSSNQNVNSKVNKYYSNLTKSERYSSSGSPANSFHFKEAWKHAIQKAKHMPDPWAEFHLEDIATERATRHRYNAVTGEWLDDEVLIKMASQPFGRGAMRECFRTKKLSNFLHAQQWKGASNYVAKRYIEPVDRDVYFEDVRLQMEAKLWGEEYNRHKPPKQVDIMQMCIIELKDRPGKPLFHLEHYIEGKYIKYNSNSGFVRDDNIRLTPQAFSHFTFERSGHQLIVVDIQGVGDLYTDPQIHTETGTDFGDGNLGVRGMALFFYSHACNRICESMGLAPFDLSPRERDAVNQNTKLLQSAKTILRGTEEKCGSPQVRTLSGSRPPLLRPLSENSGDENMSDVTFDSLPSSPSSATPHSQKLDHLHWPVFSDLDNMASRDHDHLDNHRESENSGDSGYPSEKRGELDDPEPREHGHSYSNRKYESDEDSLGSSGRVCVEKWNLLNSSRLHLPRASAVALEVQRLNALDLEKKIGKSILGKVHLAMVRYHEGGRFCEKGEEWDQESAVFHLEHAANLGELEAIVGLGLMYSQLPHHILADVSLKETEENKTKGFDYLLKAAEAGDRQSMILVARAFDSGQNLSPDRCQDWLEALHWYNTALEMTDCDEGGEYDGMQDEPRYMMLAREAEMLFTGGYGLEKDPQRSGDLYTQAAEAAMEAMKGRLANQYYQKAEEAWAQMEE
PAK2 (human), Q13177 [T402E], sequence (Q13177 whole entry T402E, looked up): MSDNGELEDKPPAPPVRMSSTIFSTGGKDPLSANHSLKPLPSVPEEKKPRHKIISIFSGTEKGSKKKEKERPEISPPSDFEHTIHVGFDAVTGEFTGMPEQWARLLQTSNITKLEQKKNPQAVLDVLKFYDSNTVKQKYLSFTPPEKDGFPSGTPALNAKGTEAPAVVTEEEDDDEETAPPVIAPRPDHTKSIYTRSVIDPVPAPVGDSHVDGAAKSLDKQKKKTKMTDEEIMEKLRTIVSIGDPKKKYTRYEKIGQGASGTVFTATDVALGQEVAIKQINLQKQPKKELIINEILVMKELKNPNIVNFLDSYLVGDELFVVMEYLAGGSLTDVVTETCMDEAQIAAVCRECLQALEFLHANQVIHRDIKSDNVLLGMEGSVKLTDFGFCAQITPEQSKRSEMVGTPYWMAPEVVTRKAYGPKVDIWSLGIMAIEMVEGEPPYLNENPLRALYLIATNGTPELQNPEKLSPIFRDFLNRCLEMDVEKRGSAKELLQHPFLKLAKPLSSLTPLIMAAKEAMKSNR
MAPKAPK2 (human), sequence (P49137 whole entry, looked up): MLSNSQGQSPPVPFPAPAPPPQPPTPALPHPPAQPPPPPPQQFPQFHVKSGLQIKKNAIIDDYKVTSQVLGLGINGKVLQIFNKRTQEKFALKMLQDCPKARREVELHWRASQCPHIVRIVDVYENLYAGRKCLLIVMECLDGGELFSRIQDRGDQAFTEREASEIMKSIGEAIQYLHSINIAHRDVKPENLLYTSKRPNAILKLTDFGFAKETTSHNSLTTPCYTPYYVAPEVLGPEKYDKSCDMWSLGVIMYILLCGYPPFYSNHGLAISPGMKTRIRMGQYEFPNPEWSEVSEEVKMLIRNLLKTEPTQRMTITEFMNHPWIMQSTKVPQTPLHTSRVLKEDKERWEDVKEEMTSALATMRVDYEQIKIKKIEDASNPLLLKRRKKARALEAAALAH

## O=S(=O)(c1ccc(F)c2nonc12)N1CCN(c2ncc(C(F)(F)F)cc2Cl)CC1
MAP2K2 (human)
  residual activity: 99%
MAPK9 (human); compound 10.0 µM
  residual activity: 87%
IKBKB (human); compound 10.0 µM
  residual activity: 89%
PIM3 (human); compound 10.0 µM
  residual activity: 116%
EPHB1 (human)
  residual activity: 117%
SRPK1 (human); compound 10.0 µM
  residual activity: 82%
YES1 (human); compound 10.0 µM
  residual activity: 105%
[1]; compound 10.0 µM
  residual activity: 98%
MAPKAPK2 (human); compound 10.0 µM
  residual activity: 86%
CDK2 CCNA2 (human); compound 10.0 µM
  residual activity: 88%
TBK1 (human); compound 10.0 µM
  residual activity: 85%
MARK4 (human); compound 10.0 µM
  residual activity: 85%
MAP3K9 (human); compound 10.0 µM
  residual activity: 108%
BTK (human); compound 10.0 µM
  residual activity: 86%
PIM2 (human); compound 10.0 µM
  residual activity: 97%
[2]; compound 10.0 µM
  residual activity: 95%
PKN2 (human); compound 10.0 µM
  residual activity: 69%
TTK (human); compound 10.0 µM
  residual activity: 80%
MAP2K1 (human); compound 10.0 µM
  residual activity: 99%
PAK6 (human); compound 10.0 µM
  residual activity: 109%
MARK3 (human); compound 10.0 µM
  residual activity: 106%
CSNK2A1 (human); compound 10.0 µM
  residual activity: 79%
GCK (human); compound 10.0 µM
  residual activity: 80%
EPHA4 (human); compound 10.0 µM
  residual activity: 90%
STK3 (human); compound 10.0 µM
  residual activity: 82%
CHEK1 (human); compound 10.0 µM
  residual activity: 96%
MYLK (human); compound 10.0 µM
  residual activity: 112%
MKNK2 (human); compound 10.0 µM
  residual activity: 92%
NEK6 (human); compound 10.0 µM
  residual activity: 78%
MAP3K5 (human)
  residual activity: 101%
PIM1 (human); compound 10.0 µM
  residual activity: 88%
INSRR (human); compound 10.0 µM
  residual activity: 102%
EEF2K (human); compound 10.0 µM
  residual activity: 79%

## NC(=O)c1cc2c(-c3cccc(-c4ccccc4)c3)cnc(N)c2s1
EPHB4 (human); compound 0.1 µM
  residual activity: 107%
EPHB4 (human); compound 1.0 µM
  residual activity: 76%
EPHB4 (human); compound 10.0 µM
  residual activity: 19%
MAPK9 (human); compound 0.1 µM
  residual activity: 107%
MAPK9 (human); compound 1.0 µM
  residual activity: 82%
MAPK9 (human); compound 10.0 µM
  residual activity: 33%
IKBKB (human); compound 0.1 µM
  residual activity: 96%
IKBKB (human); compound 1.0 µM
  residual activity: 81%
IKBKB (human); compound 10.0 µM
  residual activity: 65%
PIM3 (human); compound 0.1 µM
  residual activity: 101%
PIM3 (human); compound 1.0 µM
  residual activity: 88%
PIM3 (human); compound 10.0 µM
  residual activity: 42%
SRPK1 (human); compound 0.1 µM
  residual activity: 87%
SRPK1 (human); compound 1.0 µM
  residual activity: 67%
SRPK1 (human); compound 10.0 µM
  residual activity: 17%
YES1 (human); compound 1.0 µM
  residual activity: 66%
YES1 (human); compound 10.0 µM
  residual activity: 13%
[1]; compound 0.1 µM
  residual activity: 100%
[1]; compound 1.0 µM
  residual activity: 93%
[1]; compound 10.0 µM
  residual activity: 84%
MAPKAPK2 (human); compound 0.1 µM
  residual activity: 102%
MAPKAPK2 (human); compound 1.0 µM
  residual activity: 101%
MAPKAPK2 (human); compound 10.0 µM
  residual activity: 94%
CDK2 CCNA2 (human); compound 0.1 µM
  residual activity: 97%
CDK2 CCNA2 (human); compound 1.0 µM
  residual activity: 87%
CDK2 CCNA2 (human); compound 10.0 µM
  residual activity: 35%
TBK1 (human); compound 0.1 µM
  residual activity: 98%
TBK1 (human); compound 1.0 µM
  residual activity: 91%
TBK1 (human); compound 10.0 µM
  residual activity: 47%
MARK4 (human); compound 0.1 µM
  residual activity: 88%
MARK4 (human); compound 1.0 µM
  residual activity: 82%
MARK4 (human); compound 10.0 µM
  residual activity: 46%
DAPK1 (human); compound 0.1 µM
  residual activity: 76%
DAPK1 (human); compound 1.0 µM
  residual activity: 40%
DAPK1 (human); compound 10.0 µM
  residual activity: 10%
MAP3K9 (human); compound 0.1 µM
  residual activity: 54%
MAP3K9 (human); compound 1.0 µM
  residual activity: 18%
MAP3K9 (human); compound 10.0 µM
  residual activity: 6%
BTK (human); compound 1.0 µM
  residual activity: 94%
BTK (human); compound 10.0 µM
  residual activity: 30%
PIM2 (human); compound 0.1 µM
  residual activity: 98%
PIM2 (human); compound 1.0 µM
  residual activity: 95%
PIM2 (human); compound 10.0 µM
  residual activity: 81%
[2]; compound 0.1 µM
  residual activity: 112%
[2]; compound 1.0 µM
  residual activity: 90%
[2]; compound 10.0 µM
  residual activity: 39%
PKN2 (human); compound 0.1 µM
  residual activity: 100%
PKN2 (human); compound 1.0 µM
  residual activity: 76%
PKN2 (human); compound 10.0 µM
  residual activity: 29%
TTK (human); compound 0.1 µM
  residual activity: 87%
TTK (human); compound 1.0 µM
  residual activity: 55%
TTK (human); compound 10.0 µM
  residual activity: 24%
MAP2K1 (human); compound 0.1 µM
  residual activity: 90%
MAP2K1 (human); compound 1.0 µM
  residual activity: 86%
MAP2K1 (human); compound 10.0 µM
  residual activity: 17%
PAK6 (human); compound 0.1 µM
  residual activity: 85%
PAK6 (human); compound 1.0 µM
  residual activity: 70%
PAK6 (human); compound 10.0 µM
  residual activity: 31%
MARK3 (human); compound 0.1 µM
  residual activity: 104%
MARK3 (human); compound 1.0 µM
  residual activity: 69%
MARK3 (human); compound 10.0 µM
  residual activity: 26%
CSNK2A1 (human); compound 0.1 µM
  residual activity: 91%
CSNK2A1 (human); compound 1.0 µM
  residual activity: 94%
CSNK2A1 (human); compound 10.0 µM
  residual activity: 100%
GCK (human); compound 0.1 µM
  residual activity: 7%
GCK (human); compound 1.0 µM
  residual activity: 6%
GCK (human); compound 10.0 µM
  residual activity: 5%
RPS6KA5 KD1 KD2 (human); compound 1.0 µM
  residual activity: 97%
RPS6KA5 KD1 KD2 (human); compound 10.0 µM
  residual activity: 70%
EPHA4 (human); compound 0.1 µM
  residual activity: 93%
EPHA4 (human); compound 1.0 µM
  residual activity: 89%
EPHA4 (human); compound 10.0 µM
  residual activity: 71%
STK3 (human); compound 0.1 µM
  residual activity: 108%
STK3 (human); compound 1.0 µM
  residual activity: 59%
STK3 (human); compound 10.0 µM
  residual activity: 21%
CHEK1 (human); compound 0.1 µM
  residual activity: 100%
CHEK1 (human); compound 1.0 µM
  residual activity: 64%
CHEK1 (human); compound 10.0 µM
  residual activity: 29%
MYLK (human); compound 0.1 µM
  residual activity: 98%
MYLK (human); compound 1.0 µM
  residual activity: 53%
MYLK (human); compound 10.0 µM
  residual activity: 17%
MKNK2 (human); compound 1.0 µM
  residual activity: 91%
MKNK2 (human); compound 10.0 µM
  residual activity: 66%
NEK6 (human); compound 0.1 µM
  residual activity: 108%
NEK6 (human); compound 1.0 µM
  residual activity: 98%
NEK6 (human); compound 10.0 µM
  residual activity: 135%
PIM1 (human); compound 0.1 µM
  residual activity: 112%
PIM1 (human); compound 1.0 µM
  residual activity: 89%
PIM1 (human); compound 10.0 µM
  residual activity: 41%
INSRR (human); compound 0.1 µM
  residual activity: 66%
INSRR (human); compound 1.0 µM
  residual activity: 26%
INSRR (human); compound 10.0 µM
  residual activity: 16%
EEF2K (human); compound 0.1 µM
  residual activity: 124%
EEF2K (human); compound 1.0 µM
  residual activity: 114%
EEF2K (human); compound 10.0 µM
  residual activity: 117%

— the kinase profiling compilation of Christmann-Franck et al. (2016)
